# Columns and labels:
# [1] = Solubility of the compound in phosphate buffer solution at pH7.4; type: physicochemical; details: pH 7.4
# [2] = Cytotoxicity against human OE21 cells assessed as cell survival after 24 hrs by MTT assay; type: functional, cell-based; details: OE21, 24 h
# [3] = Cytotoxicity against human HET-1A cells assessed as cell survival after 24 hrs by MTT assay; type: cell-based
# [4] = Drug uptake in human OE21 endoplasmic reticulum at 9 uM after 5 mins by confocal microscopy; type: ADME
# [5] = Ratio of IC50 for cytotoxicity against human HET-1A cells to IC50 for cytotoxicity against human OE21 cells; type: toxicity, cell-based; details: HET-1A cells and OE21 cells, read-out: Ratio IC50
# [6] = Drug uptake in human HET-1A endoplasmic reticulum after 20 mins to 2 hrs by confocal microscopy; type: ADME
# [7] = Drug uptake in human OE21 endoplasmic reticulum assessed as fluorescence intensity at 18 uM after 20 mins to 2 hrs by confocal microscopy; type: ADME
# [8] = Drug uptake in human OE21 endoplasmic reticulum at 27 uM after 20 mins by confocal microscopy; type: ADME
# [9] = Drug uptake in human HET-1A endoplasmic reticulum after 5 mins by confocal microscopy; type: ADME
smiles,measurement,setting,value
Brc1ccc(-c2nc3c4cccnc4c4ncccc4c3[nH]2)cc1,solubility,[1],soluble
same,IC50,[2],0.77 µM
same,IC50,[3],3.15 µM
same,Drug uptake,[4],Active
same,selectivity ratio,[5],4
same,Drug uptake,[6],Active
same,Drug uptake,[7],Active
same,Drug uptake,[8],Active
C[Si](C)(C)C#Cc1ccc(-c2nc3c4cccnc4c4ncccc4c3[nH]2)cc1,solubility,[1],soluble
same,IC50,[2],0.44 µM
same,IC50,[3],3.02 µM
same,Drug uptake,[4],Active
same,selectivity ratio,[5],7
same,Drug uptake,[6],Active
same,Drug uptake,[7],Active
same,Drug uptake,[9],Active
same,Drug uptake,[8],Active

# Source: ChEMBL document CHEMBL1806426, “Simple but powerful: phenanthroline-based small molecules for cellular imaging and cancer screening” (Bioorg Med Chem Lett, 2011)
